Data as given in PMC8480901 (PLoS ONE, 2021).
“And” between values parts separate entries of the source, which are not always exact repeats. Equal values may be shown once.

Test system: human PBMCs
Experiment: LPS-induced cytokine and chemokine levels in human PBMC supernatant (Luminex, ELISA)
Assay type: cell-based
Details: for CCl2, % reduction / CXCL1 % reduction / CXCL2 % reduction / MMP9 % reduction / CCl2, Mean / CXCL1, Mean / CXCL2, Mean / MMP9, Mean / CCl2, individual value / CXCL1, individual value / CXCL2, individual value / MMP9, individual value: LPS-stimulated PBMC supernatant; for CCl2, Mean / CXCL1, Mean / CXCL2, Mean / MMP9, Mean: sample size 2; for CCl2, individual value / CXCL1, individual value / CXCL2, individual value / MMP9, individual value: single replicate
[1] = LPS-stimulated human PBMC supernatant, 0.03 µM

`CC[C@H]1OC(=O)[C@H](C)[C@@H](O[C@H]2C[C@@](C)(OC)[C@@H](O)[C@H](C)O2)[C@H](C)[C@@H](O[C@@H]2O[C@H](C)C[C@H](N(C)C)[C@H]2O)[C@](C)(O)C[C@@H](C)CN(C)[C@H](C)[C@@H](O)[C@]1(C)O` [Azithromycin] was tested, and the “CCl2, % reduction” value (0.03 µM) was -5.55%, the “CXCL1 % reduction” value (0.03 µM) was -4.76% and the “CXCL2 % reduction” value (0.03 µM) was 2.43%. The “MMP9 % reduction” value (0.03 µM) was -1.46%, the “CCl2, Mean” value (0.03 µM) was 1334 pg/mL and the “CXCL1, Mean” value (0.03 µM) was 6234 pg/mL. For the same compound, the “CXCL2, Mean” value (0.03 µM) was 4935 pg/mL, the “MMP9, Mean” value (0.03 µM) was 3019 pg/mL and the “CCl2, individual value” (0.03 µM) was 1307 pg/mL and 1361 pg/mL. The “CXCL1, individual value” (0.03 µM) was 6199 pg/mL and 6268 pg/mL, the “CXCL2, individual value” (0.03 µM) was 5023 pg/mL and 4847 pg/mL and the “MMP9, individual value” (0.03 µM) was 3072 pg/mL and 2966 pg/mL. For the same compound, the “CCl2, % reduction” value (0.1 µM) was -0.293%, the “CXCL1 % reduction” value (0.1 µM) was -0.522% and the “CXCL2 % reduction” value (0.1 µM) was 4.49%. The “MMP9 % reduction” value (0.1 µM) was -3.72%, the “CCl2, Mean” value (0.1 µM) was 1270 pg/mL and the “CXCL1, Mean” value (0.1 µM) was 5984 pg/mL. For the same compound, the “CXCL2, Mean” value (0.1 µM) was 4831 pg/mL, the “MMP9, Mean” value (0.1 µM) was 3056 pg/mL and the “CCl2, individual value” (0.1 µM) was 1278 pg/mL and 1261 pg/mL. For the same compound, the “CXCL1, individual value” (0.1 µM) was 6035 pg/mL and 5932 pg/mL, the “CXCL2, individual value” (0.1 µM) was 4923 pg/mL and 4739 pg/mL and the “MMP9, individual value” (0.1 µM) was 3040 pg/mL and 3071 pg/mL. The “CCl2, % reduction” value (0.3 µM) was -5.66%, the “CXCL1 % reduction” value (0.3 µM) was -5% and the “CXCL2 % reduction” value (0.3 µM) was 1.16%. For the same compound, the “MMP9 % reduction” value (0.3 µM) was -0.427%, the “CCl2, Mean” value (0.3 µM) was 1335 pg/mL and the “CXCL1, Mean” value (0.3 µM) was 6237 pg/mL. For the same compound, the “CXCL2, Mean” value (0.3 µM) was 4999 pg/mL, the “MMP9, Mean” value (0.3 µM) was 3002 pg/mL and the “CCl2, individual value” (0.3 µM) was 1355 pg/mL and 1316 pg/mL. For the same compound, the “CXCL1, individual value” (0.3 µM) was 6416 pg/mL and 6058 pg/mL, the “CXCL2, individual value” (0.3 µM) was 4805 pg/mL and 5194 pg/mL and the “MMP9, individual value” (0.3 µM) was 2940 pg/mL and 3064 pg/mL. For the same compound, the “CCl2, % reduction” value (1 µM) was -3.46%, the “CXCL2 % reduction” value (1 µM) was 5.46% and the “MMP9 % reduction” value (1 µM) was 0.166%. For the same compound, the “CCl2, Mean” value (1 µM) was 1309 pg/mL, the “CXCL1, Mean” value (1 µM) was 6015 pg/mL and the “CXCL2, Mean” value (1 µM) was 4782 pg/mL. The “MMP9, Mean” value (1 µM) was 2992 pg/mL, the “CCl2, individual value” (1 µM) was 1330 pg/mL and 1287 pg/mL and the “CXCL1, individual value” (1 µM) was 6000 pg/mL and 6030 pg/mL. For the same compound, the “CXCL2, individual value” (1 µM) was 4905 pg/mL and 4659 pg/mL, the “MMP9, individual value” (1 µM) was 2945 pg/mL and the “CCl2, % reduction” value (3 µM) was -21%. The “CXCL1 % reduction” value (3 µM) was -11%, the “CXCL2 % reduction” value (3 µM) was -6% and the “MMP9 % reduction” value (3 µM) was -3.25%. For the same compound, the “CCl2, Mean” value (3 µM) was 1528 pg/mL, the “CXCL1, Mean” value (3 µM) was 6579 pg/mL and the “CXCL2, Mean” value (3 µM) was 5371 pg/mL. The “MMP9, Mean” value (3 µM) was 3048 pg/mL, the “CCl2, individual value” (3 µM) was 1488 pg/mL and 1567 pg/mL and the “CXCL1, individual value” (3 µM) was 6461 pg/mL and 6697 pg/mL. For the same compound, the “CXCL2, individual value” (3 µM) was 5747 pg/mL and 4996 pg/mL, the “MMP9, individual value” (3 µM) was 3040 pg/mL and 3056 pg/mL and the “CCl2, % reduction” value (10 µM) was -56%. The “CXCL1 % reduction” value (10 µM) was -10%, the “CXCL2 % reduction” value (10 µM) was 2% and the “MMP9 % reduction” value (10 µM) was 7.45%. The “CCl2, Mean” value (10 µM) was 1950 pg/mL, the “CXCL1, Mean” value (10 µM) was 6547 pg/mL and the “CXCL2, Mean” value (10 µM) was 4953 pg/mL. For the same compound, the “MMP9, Mean” value (10 µM) was 2874 pg/mL, the “CCl2, individual value” (10 µM) was 1899 pg/mL and 2002 pg/mL and the “CXCL1, individual value” (10 µM) was 6457 pg/mL and 6637 pg/mL. The “CXCL2, individual value” (10 µM) was 4894 pg/mL and 5012 pg/mL, the “MMP9, individual value” (10 µM) was 2884 pg/mL and 2864 pg/mL and the “CCl2, % reduction” value (30 µM) was -138%. For the same compound, the “CXCL1 % reduction” value (30 µM) was 8%, the “CXCL2 % reduction” value (30 µM) was 10% and the “MMP9 % reduction” value (30 µM) was 5%. For the same compound, the “CCl2, Mean” value (30 µM) was 2956 pg/mL, the “CXCL1, Mean” value (30 µM) was 5474 pg/mL and the “CXCL2, Mean” value (30 µM) was 4573 pg/mL. The “MMP9, Mean” value (30 µM) was 2917 pg/mL, the “CCl2, individual value” (30 µM) was 3047 pg/mL and 2865 pg/mL and the “CXCL1, individual value” (30 µM) was 5594 pg/mL and 5354 pg/mL. The “CXCL2, individual value” (30 µM) was 4609 pg/mL and 4537 pg/mL, the “MMP9, individual value” (30 µM) was 2925 pg/mL and 2908 pg/mL and the “CCl2, % reduction” value (100 µM) was -63%. The “CXCL1 % reduction” value (100 µM) was 55%, the “CXCL2 % reduction” value (100 µM) was 16% and the “CCl2, Mean” value (100 µM) was 2038 pg/mL. For the same compound, the “CXCL1, Mean” value (100 µM) was 2693 pg/mL, the “CXCL2, Mean” value (100 µM) was 4264 pg/mL and the “MMP9, Mean” value (100 µM) was 2975 pg/mL. For the same compound, the “CCl2, individual value” (100 µM) was 1970 pg/mL and 2105 pg/mL, the “CXCL1, individual value” (100 µM) was 2693 pg/mL and the “CXCL2, individual value” (100 µM) was 4200 pg/mL and 4328 pg/mL. The “MMP9, individual value” (100 µM) was 2977 pg/mL and 2972 pg/mL, the GM-CSF % reduction [1] was 1.46% and the “GM-CSF [pg/mL], Mean” value [1] was 648 pg/mL. For the same compound, the “GM-CSF [pg/mL], individual value” [1] was 664 pg/mL and 632 pg/mL, the IL-1β % reduction [1] was 4.49% and the “IL-1β [pg/mL], Mean” value [1] was 12211 pg/mL. The “IL-1β [pg/mL], individual value” [1] was 11901 pg/mL, the IL-6 % reduction [1] was -0.732% and the “IL-6 [pg/mL], Mean” value [1] was 35164 pg/mL. For the same compound, the “IL-6 [pg/mL], individual value” [1] was 34554 pg/mL and 35775 pg/mL, the IL-8 % reduction [1] was -1.46% and the “IL-8 [pg/mL], Mean” value [1] was 3019 pg/mL. The “IL-8 [pg/mL], individual value” [1] was 3072 pg/mL and 2966 pg/mL and the TNF-α % reduction [1] was -24%.
